Experimental findings from patent US20230076820A1, “Substituted Pyrazole Compounds and Methods of Using Them for Treatment of Hyperproliferative Diseases” (Bantam Pharmaceutical, LLC, priority 2016, published 2023) are described below.

For the test, the system named is HCT116 cells. The experiment in a line: Total glutathione levels (GSH-Glo), HCT116. The test is classed as cell-based. The protocol:
Measurement of glutathione levels following treatment using three cell lines: BJAB, HCT116, and normal human lung fibroblasts (NHLF) were maintained in RPMI (Wisent), McCoy’s (Wisent) or FGM-2 (Lonza) medium, respectively. For total glutathione measurement, 5000 cells /well (BJAB or HCT116) or 10,000 cells/well (NHLF) were transferred to clear-bottom 96-well assay plates (Thermo Fisher) in a volume of 50 µL. Plates were incubated overnight at 37° C. in 5% CO2, in an unsealed plastic bag with damp paper. Test compound was serially diluted in medium plus 0.4% DMSO, and 50 µL/well of each dilution was transferred to the assay plate. Assay plates were incubated at 37° C. in 5% CO2 in unsealed plastic bag with damp paper for the indicated time. For total glutathione measurement, GSH-Glo™ reagent (Promega) was prepared by diluting provided Luciferin-NT (1:100), Glutathione S-Transferase (1:100), and DTT (1 mM final) to GSH-Glo™ Reaction buffer, and 100 µL was added to assay plates, followed by 30 min incubation at room temperature, and then 100 µL Luciferin Detection Reagent was added. […] Luminescence was measured using Tecan Infinite 200Pro.
Effect on Glutathione levels: BJAB and HCT116 cells were maintained in RPMI medium (Wisent) or McCoy’s medium (Wisent), respectively. […] Total glutathione levels were determined according to the procedure described above.

For the compound `CC1=CC(=O)c2ccccc2C1=O` [menadione, Menadione], the “glutathione levels after treatment” value (HCT116, FIG. 3) is reported as “reduction in glutathione levels”. Besides, the “glutathione levels in the presence or absence of N-acetyl cysteine” value (HCT116, with or without N-acetyl cysteine, FIG. 3) was “N-acetyl cysteine in the media prevents the reduction of glutathione”.
